Assay results: PMC9964746, “Mechanism of Action and Structure–Activity Relationships of Tetracyclic Small Molecules Acting as Universal Positive Allosteric Modulators of the Cholecystokinin Receptor” (Membranes, 2023)
Values joined by “and” are separate entries in the source; they are usually repeats but may differ in a detail not shown here. Identical values can stand only once.

Assays:
parental CHO cells = assay: Intracellular calcium assay in parental CHO cells; type: cell-based; conditions: compound alone, up to 20 µM
Description: (§1) Biological activity was quantified in the CHO cell lines described above using intracellular calcium assays that were performed, as previously described, using Fura-8-AM (AAT Bioquest, Pleasonton, CA, USA). Full agonist dose–response curves were performed along with determination of maximal responses to 0.1 mM ATP, targeting an endogenous receptor present on the parental cells. Concentration–response curves of peak intracellular calcium responses were analyzed and plotted as percentages of maximal responses using non-linear regression analysis in Prism 9.1 (GraphPad).

[1] = target: T1, vasopressin-2 receptor (AVP2R) (Homo sapiens, UniProt P30518); assay: AVP2R cAMP HTRF accumulation assay; type: cell-based; conditions: for AVP2R PAM (cAMP) Score (activity score = normalized Emax × pEC50): PAM format
T1 construct: expressed in transfected cells; host or cells: CHO-K1 (PAM format); HEK-293 (agonist format)
T1 sequence (P30518 whole entry): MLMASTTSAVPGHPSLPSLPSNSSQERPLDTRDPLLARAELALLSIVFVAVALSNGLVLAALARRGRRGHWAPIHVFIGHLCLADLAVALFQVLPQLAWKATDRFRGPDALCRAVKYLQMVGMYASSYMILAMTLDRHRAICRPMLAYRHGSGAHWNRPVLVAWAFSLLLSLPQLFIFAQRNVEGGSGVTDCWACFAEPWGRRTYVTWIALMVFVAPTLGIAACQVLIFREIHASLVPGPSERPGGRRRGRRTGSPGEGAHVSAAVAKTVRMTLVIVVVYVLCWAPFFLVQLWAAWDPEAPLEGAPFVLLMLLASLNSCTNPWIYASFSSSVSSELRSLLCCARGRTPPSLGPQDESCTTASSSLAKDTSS
Procedure, shortened: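 Readout is HTRF cAMP detection (30 min, room temperature) following 30 min compound exposure with vasopressin stimulation, using HEK-293 cells for agonist mode and CHO-K1 cells for PAM mode, both overexpressing AVP2R, in IBMX-containing HBSS/HEPES buffer. Curves: 16 points, 2-fold steps, duplicate, ≥2 experiments.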

CCK2R = target: T2, CCK2R (Homo sapiens, UniProt P32239); assay: Intracellular calcium assay (Fura-8-AM) in CHO-CCK2R cells; type: cell-based; conditions: compound 10 µM
T2 construct: expressed in transfected cells; host or cells: CHO-K1 (CHO-CCK2R line)
T2 sequence (P32239 1-447): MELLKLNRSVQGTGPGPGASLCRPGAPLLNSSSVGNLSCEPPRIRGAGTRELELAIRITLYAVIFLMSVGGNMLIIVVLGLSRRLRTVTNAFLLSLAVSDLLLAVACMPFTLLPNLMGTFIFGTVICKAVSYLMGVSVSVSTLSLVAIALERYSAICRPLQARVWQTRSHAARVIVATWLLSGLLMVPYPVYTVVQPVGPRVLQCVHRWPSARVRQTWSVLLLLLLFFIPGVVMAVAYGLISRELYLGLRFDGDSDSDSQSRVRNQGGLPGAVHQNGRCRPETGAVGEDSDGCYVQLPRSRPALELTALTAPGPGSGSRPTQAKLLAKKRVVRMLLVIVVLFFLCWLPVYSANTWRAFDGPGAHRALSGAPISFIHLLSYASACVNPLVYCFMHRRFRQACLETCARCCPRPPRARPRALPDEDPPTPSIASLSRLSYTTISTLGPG
Description: as §1

CCK1R [2] = target: T3, CCK1R (Homo sapiens, UniProt P32238); assay: Intracellular calcium assay (Fura-8-AM) in CHO-CCK1R cells; type: cell-based; set-up: expressed in transfected cells; conditions: for Intrinsic agonist activity at CCK1R (intracellular calcium): CHO-CCK1R cells, compound alone, up to 20 µM; for Kb / Logαβ: operational model of allosterism, mean ± SEM; for Kb: CCK-8-stimulated calcium responses in CCK1R-expressing cells; for Logαβ: cooperativity with CCK-8 in CCK1R-expressing cells
T3 sequence (P32238 1-428): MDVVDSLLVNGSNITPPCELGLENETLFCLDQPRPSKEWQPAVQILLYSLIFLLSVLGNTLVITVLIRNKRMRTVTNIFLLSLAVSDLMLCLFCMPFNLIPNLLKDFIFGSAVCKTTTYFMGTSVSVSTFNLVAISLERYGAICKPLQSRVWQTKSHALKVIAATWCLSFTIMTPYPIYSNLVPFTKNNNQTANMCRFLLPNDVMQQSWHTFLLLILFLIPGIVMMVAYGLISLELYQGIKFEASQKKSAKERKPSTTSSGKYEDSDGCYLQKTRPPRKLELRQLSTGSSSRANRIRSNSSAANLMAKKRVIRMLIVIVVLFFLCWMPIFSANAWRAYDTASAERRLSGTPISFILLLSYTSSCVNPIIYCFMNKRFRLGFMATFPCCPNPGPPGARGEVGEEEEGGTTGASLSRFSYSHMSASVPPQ
Description: as §1

CCK1R [3] = target: T3, CCK1R; assay: CCK1R cAMP accumulation assay, PAM format, HEK-293 CCK1R cells; type: cell-based; set-up: expressed in transfected cells; host or cells: HEK-293; conditions: for EC50: EC20 concentration of CCK; for Emax: HEK293, EC20 concentration of CCK
Description: Possible off-target biological effects. […] Here, we tested them at the vasopressin-2 receptor (AVP2R), representing a class A GPCR structurally related to CCK1R, which is coupled to Gs. The activity at AVP2R was tested using AVP2R-overexpressing CHO-K1 (PAM format) or HEK-293 (agonist format) cells, stimulating the cells with vasopressin. Original hits were tested in both agonist and PAM formats. Since all recognized compound responses were present in both formats, we continued to screen analogs in only the PAM format (also able to capture agonist effects) in CHO-K1 AVP2R cells for potential enhanced sensitivity. The dose–response data sets for original hits were combined, as the PAM and agonist effects were indistinguishable. In brief, arginine vasopressin (AVP) orthosteric stimulator dilutions and ligand and compound dose–response titrations in DMSO were transferred onto a 1536-well plate (Corning #3725) using an Echo liquid handler (Labcyte). Thawed cryopreserved cell stocks were diluted in stimulation buffer consisting of HBSS (Hank’s Balanced Salt Solution with Ca^2+ and Mg^2+, Gibco #24020117), 5 mM HEPES (hydroxyethyl piperazineethanesulfonic acid), 0.5 mM IBMX (3-isobutyl-1-methylxanthine, Sigma-Aldrich), and 0.075% BSA (7.5% DTPA-purified bovine serum albumin, PerkinElmer). The resulting cell suspension was added to the microplate and incubated with test compounds at room temperature for 30 min. Then, the detection reagents from the Cisbio cAMP Gs Dynamic HTRF detection kit were added. The plate was kept at room temperature for 30 min and read on a PHERAstar FSX microplate reader. Dose–response curves were performed as 16-point 2-fold dilutions in duplicate in at least two independent experiments.
For CCK1R-induced Gs signaling studies, we performed cAMP accumulation assays as described above and as previously reported, utilizing the HEK-293 cells overexpressing CCK1Rs and the EC20 concentration of CCK for screening in PAM format.

CCK1R [4] = target: T3, CCK1R; assay: Receptor internalization assay with alexa488-CCK; type: cell-based; set-up: expressed in transfected cells; host or cells: HEK-293; conditions: hits at 10 µM; cell surface receptor labelled with alexa488-CCK
Description: Receptor internalization assays were performed with the fluorescent alexa488-CCK ligand used to visualize cell surface receptors after treatment and fixation with 2% paraformaldehyde (Electron Microscopy Sciences, Cat# 15710), as we described. Images were acquired with a Zeiss Axiovert 200M inverted epifluorescence microscope.

[5] = system: purinergic receptor (P2YR); conditions: off-target screen ref 6; cited from earlier work
[6] = CHO-K1 AVP2R cells, PAM format with vasopressin, original hits: agonist and PAM data combined, average ± SD

Row | SMILES | Agonist activity at parental CHO cells (intracellular calcium) (parental CHO cells) | Emax ([1]; CHO-K1, CHO-K1 AVP2R cells, PAM format with vasopressin, original hits: agonist and PAM data combined, average ± SD) [%] | AVP2R PAM (cAMP) Score (activity score = normalized Emax × pEC50) ([1]; CHO-K1 AVP2R cells) | AVP2R PAM (cAMP) Emax [1, 6] [%] | EC50 [1, 6] [µM] | Effect on CCK action at CCK2R (intracellular calcium) (CCK2R) | Intrinsic agonist activity at CCK1R (intracellular calcium) (CCK1R [2]) | Kb (CCK1R [2]) [µM] | Logαβ (CCK1R [2]; listed as Hit 1) | Logαβ (CCK1R [2]; listed as hit 1) | EC50 (CCK1R [3]) [µM] | Emax (CCK1R [3]) [%] | CCK1R internalization (CCK1R [4]) | Activity at P2YR [5] | Emax [1, 6] [%] | Logαβ (CCK1R [2]; listed as Hit 6) | Logαβ (CCK1R [2]; listed as hit 6)
1 | CCN(CC)CCNc1ncnc2c1sc1nc(N3CCOCC3)c3c(c12)CCCC3 [CMP-1] | no significant endogenous agonist activity | 21 | 1.0 and 1.02 | 20.7 ± 9.8 | 12 ± 7.1 | no effect on CCK2R | no significant endogenous agonist activity at CCK1R | 31.6 | 1.5 ± 0.3 | 1.5 | 14.7 ± 7.3 | 48 ± 31 | neither “hit” cleared the receptor from the cell surface | Neither compound exhibited any activity at the P2YR |  |  | 
2 | CCCc1nc2oc3c(NCCCN(C)C)ncnc3c2c2c1CCCC2 [CMP-28] | no significant endogenous agonist activity |  | 3.53 |  | 15 ± 13.6 | no effect on CCK2R | no significant endogenous agonist activity at CCK1R | 25.1 |  |  | 15.6 ± 12.4 | 56 ± 26 | neither “hit” cleared the receptor from the cell surface | Neither compound exhibited any activity at the P2YR | 73 ± 16 | 1.0 ± 0.2 | 1.0
